Measurements reported in patent US9127024B2 (Intrexon Corporation, priority 2013, dated 2015).

What was measured:
in vivo = settings: female, Sprague Dawley, rat, po, 10 mg/kg
Experimental: (§1) Female Sprague Dawley rats were fasted for at least 8 hours (overnight) prior to oral dosing of the compound via gavage (10 mg/kg; vehicle=2 mg/mL of Capryol 90/Triacetin (1:1, v/v); 3 animals/compound) and weighed prior to dosing. The correct volume of the appropriate formulation was administered based on that day's (animal) body weight. Body weight, dose volume, and dosing time was recorded for each animal. Animals were not fed for at least 4 hours following activator ligand administration.
(§2) Approximately 200 μL/blood sample was collected from the catheter sample points in EDTA tubes at each time point from each animal. The exact time of blood collection was recorded for each animal Blood samples were held at 4° C. (wet ice) starting immediately after collection and were centrifuged within 15 minutes from the collection for 12 minutes at 2500 rpm. After centrifugation, plasma samples were stored at ^−80° C. until assay. Sample times were as follows: Day 0: 0, 0.5, 1, 2, 3, 4, 6 and 8 hours; Day 1: 24 hours.
(§3) LC-MS/MS Method: Liquid chromatography tandem mass spectrometry with protein precipitation method was used to quantify the compound in rat plasma samples collected from all animals dosed with the ligand. Linearity range was from 1 ng/mL to 1000 ng/mL, with correlation coefficient for calibration curves above 0.99 and analyte quantified within ±15% of target at all calibrator concentrations.
(§4) The plasma ligand concentration was calculated by extrapolating the area under the curve values for the samples from the standard curve generated by the Analyst® software program. The ng/mL values for the plasma samples representing all the animals were used to generate the pharmacokinetic (PK) parameters.

[1] = target: RheoSwitch® (CHO-K1_RS-1 cells, firefly Luciferase reporter) (Choristoneura fumiferana, UniProt O77240); experiment: in vitro gene switch assay (fLUC Luciferase expression, potency screen); assay type: cell-based; settings: read-out: fLUC assay EC50, 24 hours with compound, 25 μM to 2.5 pM, figure in parentheses after a value not defined
Source text: Gene switch assays are disclosed, e.g., in U.S. Pat. Nos. 8,076,517; 7,456,315; 7,304,161; and 6,258,603.
CHO-K1 cells were stably transfected with a plasmid (RS-1, FIG. 1) coding for firefly Luciferase (fLUC) under the control of the RheoSwitch® resulting in the stable cell line CHO-K1_RS-1. A master cell bank was created containing approximately 100 vials at 5×10^6 cells per vial. One vial of CHO-K1_RS-1 was thawed and cultured for two weeks prior to each in vitro potency screening.
Twenty-four (24) hours prior to treatment with the control and test compounds the CHO-K1_RS-1 cells were seeded into white-opaque 384-well cell culture plates at 3,600 cells per well in 30 μl of culture medium. The cells were incubated in a humidified CO2 incubator at 37° C. until compound treatment.
Compounds were prepared at 25 mM in 100% dry DMSO and stored at room temperature in sealed 1 ml tubes prior to subsequent dilution and assay. On the day of cell treatment the tubes containing the control and test compounds were sorted and the ligands transferred to a 96-well polypropylene plate for subsequent dilution. The compounds were diluted in 100% dry DMSO in an 8-point, 10-fold dilution series ranging from 25 mM to 2.5 nM using the Biomek FX automated liquid handler.
The diluted compounds were then transferred to each well of 384-well polypropylene plate in quadruplicate resulting in a single 384-well plate with four replicates of each compound dilution in a different quadrant of the plate. Each well on the 384-well plate received 20 μl of diluted compound. The 384-well plates containing diluted compound and the plates containing cells in culture were loaded onto the Biomek FX and 30 nl of compound was delivered to each well containing cells using a 384-pin V&P Scientific Pin Tool. The resulting 1000-fold dilution (30 nl to 30 μl) generated a final dosing range of 25 μM to 2.5 pM in 0.1% DMSO. Two replicate plates were produced to supply a dedicated plate for the Luciferase expression assay and the APH cell viability assay.
The cells were incubated with the compound for 24 hours in a humidified CO2 incubator at 37° C. Following incubation, the cells were assayed for Luciferase expression (fLUC assay) using the Steady Glo assay from Promega. Cells were equilibrated to room temperature for 15 minutes prior to reagent addition. Thirty micro liters (30 μl) of assay reagent was added to each well of the 384-well plate using the Biomek FX. The reagent was incubated with the cells for 10-120 minutes prior to reading on a Molecular Devices Spectramax L luminometer. The assay reagents were prepared as per the manufacturer's instructions.
The Luciferase expression data was normalized to the baseline signal from cells treated with DMSO alone. The ratio of signal from treated cells to vehicle-treated cells was plotted and non-linear regress was performed using Graph Pad Prism software. EC50, (log)EC50 and Hill slope data was generated. Reporter gene expression, e.g., luciferase expression, serves as a proxy for the expression of a gene of interest. See, e.g., US 2009/0123441 and WO 2011/119773.

[2] = Pharmacokinetic (PK) study, oral gavage, plasma LC-MS/MS; settings: female Sprague Dawley rats, oral gavage 10 mg/kg, Capryol 90/Triacetin (1:1, v/v); for AUC(0-t): AUC0−t; for Clearance: oral clearance
Experimental: as §1, §2, §3, §4

[3] = female, Sprague Dawley, rat, po, 10 mg/kg
[4] = female, Sprague Dawley, rat, po, 10 mg/kg, Cmax
[5] = female, Sprague Dawley, rat, po, 10 mg/kg, Tmax
[6] = female, Sprague Dawley, rat, po, 10 mg/kg, half-life
[7] = listed as Cpd. No. 59 (Lot # 1), 10 mg/kg
[8] = listed as Cpd. No. 59 (Lot # 2), 10 mg/kg

Chain of RheoSwitch® (CHO-K1_RS-1 cells, firefly Luciferase reporter) (O77240 1-513): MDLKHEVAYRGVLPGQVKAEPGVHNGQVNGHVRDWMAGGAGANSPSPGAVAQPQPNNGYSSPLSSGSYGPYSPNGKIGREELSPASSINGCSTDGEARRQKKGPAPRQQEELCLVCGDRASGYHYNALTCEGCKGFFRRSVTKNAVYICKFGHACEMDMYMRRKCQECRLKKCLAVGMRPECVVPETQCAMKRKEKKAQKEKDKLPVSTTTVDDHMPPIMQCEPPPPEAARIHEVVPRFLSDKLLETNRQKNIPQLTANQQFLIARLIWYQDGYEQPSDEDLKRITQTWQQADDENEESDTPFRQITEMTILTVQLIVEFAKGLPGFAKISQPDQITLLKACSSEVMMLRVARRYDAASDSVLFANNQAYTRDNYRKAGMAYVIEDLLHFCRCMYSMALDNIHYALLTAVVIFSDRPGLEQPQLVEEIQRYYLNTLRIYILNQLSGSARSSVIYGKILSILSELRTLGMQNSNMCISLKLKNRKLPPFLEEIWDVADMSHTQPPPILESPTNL

| Compound | AUC(0-t) (in vivo; AUC0−t) [ng·h/mL] | Cmax (in vivo; Cmax) [ng/mL] | Tmax (in vivo; Tmax) [h] | EC50 [1] [nM] | AUC(0-t) [2, 3] [ng·h/mL] | Cmax [2, 4] [ng/mL] | Tmax [2, 5] [h] | half-life [2, 6] [h] | Clearance [2] [mL/min/kg] | AUC0−t [2, 7] [ng·h/mL] | Tmax [2, 7] [h] | AUC0−t [2, 8] [ng·h/mL] | Cmax [2, 8] [ng/mL] | Tmax [2, 8] [h] | half-life [2, 8] [h] | Clearance [2, 7] [mL/min/kg] | Clearance [2, 8] [mL/min/kg] |
| --- | --- | --- | --- | --- | --- | --- | --- | --- | --- | --- | --- | --- | --- | --- | --- | --- | --- |
| Cc1cc(C)cc(C(=O)N(NC(=O)c2ccc3c(c2C)OCCO3)C(C)(C)C)c1 [Cpd. C] | 510 | 112 | 2.5 | – | – | – | – | – | – | – | – | – | – | – | – | – | – |
| Cc1cc(C)cc(C(=O)N(NC(=O)c2ccc3c(c2F)B(O)OC3)C(C)(C)C)c1 [Cpd. No. 58, N′-(tert-butyl)-N′-(3,5-dimethylbenzoyl)-7-fluoro-1-hydroxy-1,3-dihydrobenzo[c][1,2]oxaborole-6-carbohydrazide] | – | – | – | 640 | 30800 | 2650 | 3 | 15.4 | 3.57 | – | – | – | – | – | – | – | – |
| CC[C@@H](N(NC(=O)c1ccc2c(c1F)B(O)OC2)C(=O)c1cc(C)cc(C)c1)C(C)(C)C [Cpd. No. 59, (R)—N′-(3,5-dimethylbenzoyl)-N′-(2,2-dimethylpentan-3-yl)-7-fluoro-1-hydroxy-1,3-dihydrobenzo[c][1,2]oxaborole-6-carbohydrazide] | – | – | – | 108 | – | 11200 | – | 5.2 | – | 127700 | 5 | 300721 | 18833 | 1.8 | 10.0 | 1.4 | 0.538 |
| CC[C@@H](N(NC(=O)c1ccc2c(c1F)COB2O)C(=O)c1cc(C)cc(C)c1)C(C)(C)C [Cpd. No. 67, (R)—N′-(3,5-dimethylbenzoyl)-N′-(2,2-dimethylpentan-3-yl)-4-fluoro-1-hydroxy-1,3-dihydrobenzo[c][1,2]oxaborole-5-carbohydrazide] | – | – | – | 309 | 24500 | 3320 | 3 | 5.5 | 6.63 | – | – | – | – | – | – | – | – |
